# In patent publication US8044094B2, “Agents for preventing and treating disorders connected to impaired neurotransmission” (DSM IP Assets B.V., priority 2004, dated 2011):
# Legend:
# MAO-B = target: T1, MAO-B (Homo sapiens, UniProt P27338); assay: MAO-B inhibition, Amplex Red Monoamine Oxidase Assay Kit, colorimetric; type: biochemical
# T1 construct: purchased Sigma M7441
# T1 sequence (P27338 1-520): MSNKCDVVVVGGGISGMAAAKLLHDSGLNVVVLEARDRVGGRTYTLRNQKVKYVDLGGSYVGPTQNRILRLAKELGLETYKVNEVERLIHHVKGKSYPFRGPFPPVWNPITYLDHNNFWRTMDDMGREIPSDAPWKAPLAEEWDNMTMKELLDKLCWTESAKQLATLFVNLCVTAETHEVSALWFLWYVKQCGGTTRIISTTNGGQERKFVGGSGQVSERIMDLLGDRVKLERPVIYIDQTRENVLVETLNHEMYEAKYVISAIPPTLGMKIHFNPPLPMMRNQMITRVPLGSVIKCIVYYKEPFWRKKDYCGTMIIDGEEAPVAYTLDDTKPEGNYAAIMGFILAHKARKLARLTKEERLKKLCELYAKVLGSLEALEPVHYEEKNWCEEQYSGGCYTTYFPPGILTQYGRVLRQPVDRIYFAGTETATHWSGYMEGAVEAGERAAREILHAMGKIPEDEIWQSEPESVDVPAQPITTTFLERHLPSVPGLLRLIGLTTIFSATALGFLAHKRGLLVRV
# Procedure: From a stock solution of 0.0405 g of racemic obliquin (92.5%; equal to 37.5 mg of pure compound) in 750 μl of dimethylsulfoxide (DMSO), working solutions were prepared with a concentration of obliquin of 4. 10^−4M in reaction buffer (0.05 M sodium phosphate, pH 7.4, 0.2% DMSO). The final concentrations of obliquin in the test system were 10^−4 M, 10^−5 M, 10^−6 M, 10^−7 M.
# For determining the inhibition of monoaminoxidases' activity, the Amplex Red Monoamine Oxidase Assay Kit (Molecular Probes Nr._A-12214, Colorimetric version) was conducted according to manufacturers instructions.
# As substrates for MAO-A enzyme (Sigma Nr. M7316) p-tyramine and as substrate for MAO-B enzyme (Sigma Nr. M7441) benzylamine were used. The concentration of MAO-A enzyme was 8 Units/ml, and that of MAO-B 4 Units/ml in the working solution.
# MAO-A and MAO-B Assay, Colorimetric Version:
# For the assay, 50 μl of each working solution (see above) were used. As control solution, the obliquin containing working solution was replaced by 50 μl of the reaction buffer.
# 50 μl of diluted MAO-A with a final concentration of 2 Units/ml and 50 μl of diluted MAO-B with a final concentration of 1 Unit/ml, respectively, were added.
# 100 μl of the Amplex solution containing horseradish peroxidase (2 U/ml) and the substrate tyramine (for MAO-A) or the substrate benzylamine (for MAO-B) were added.
# To allow a subtraction of the background absorption a mixture of 100 μl of the Amplex solution and 100 μl of the reaction buffer was measured as a “blank”.
# The samples were incubated at room temperature in the dark for 1 hour, and then the extinction at 535 nm determined in a Softmax Microplate photometer (Molecular Device).
# [1] = target: T2, human serotonin re-uptake transporter (hSERT) (Homo sapiens, UniProt P31645); assay: Serotonin uptake inhibition in HEK-293 cells stably expressing hSERT; type: cell-based; details: transfected HEK-293 cells; Ki from IC50 by Cheng-Prusoff; 20 nM (3H) serotonin; read-out: Inhibition constant Ki for tritiated serotonin uptake
# T2 sequence (P31645 whole entry): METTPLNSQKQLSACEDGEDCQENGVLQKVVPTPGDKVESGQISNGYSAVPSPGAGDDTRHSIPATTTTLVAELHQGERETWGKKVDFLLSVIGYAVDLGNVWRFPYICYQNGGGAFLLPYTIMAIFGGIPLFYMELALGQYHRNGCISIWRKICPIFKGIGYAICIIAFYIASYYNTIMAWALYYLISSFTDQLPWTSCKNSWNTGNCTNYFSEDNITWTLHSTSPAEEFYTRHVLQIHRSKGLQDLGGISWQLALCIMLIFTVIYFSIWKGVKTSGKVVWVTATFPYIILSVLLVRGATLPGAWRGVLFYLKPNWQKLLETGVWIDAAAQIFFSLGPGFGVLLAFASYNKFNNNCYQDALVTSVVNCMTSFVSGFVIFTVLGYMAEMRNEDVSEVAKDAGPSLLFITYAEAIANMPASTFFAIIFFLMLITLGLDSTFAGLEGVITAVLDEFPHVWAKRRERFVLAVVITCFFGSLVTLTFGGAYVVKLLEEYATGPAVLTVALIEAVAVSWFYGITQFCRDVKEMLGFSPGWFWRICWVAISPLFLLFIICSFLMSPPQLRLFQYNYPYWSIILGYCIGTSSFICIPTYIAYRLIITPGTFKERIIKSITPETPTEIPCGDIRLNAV
# Procedure: HEK-293 cells stably expressing the human serotonin re-uptake transporter (hSERT) were obtained from R. Blakely, Vanderbilt University, USA. The cells were routinely grown in Dulbeco's Modified Eagles Medium, purchased from Bioconcept, Allschwil, Switzerland containing 10% fetal calf serum, penicillin, streptomycin, L-glutamine and the antibiotic G418 and passaged by trypsinisation. 1 day prior to the assay cells were seeded in the above mentioned medium. Immediately prior to the assay the medium was replaced by Krebs Ringers bicarbonate buffer, purchased from Sigma Chemicals Ltd., supplemented with 35 μM pargyline, 2.2 mM CaCl2, 1 mM ascorbic acid and 5 mM N-2-hydroxyethylpiperazine-N′-2-ethanesulfonic acid (buffer called “Hepes”). Serotonin uptake into the cells was determined by addition of radio-labeled (3H) serotonin (Amersham Biosciences GE Healthcare, Slough, UK) to a concentration of 20 nM, and incubation for 30 minutes at room temperature. Following removal of unincorporated label by gentle washing three times with the above buffer, incorporated serotonin was quantified by liquid scintillation counting.
# (§1) The effect of the coumarin ethers of formula I on the serotonin uptake and the citalopram binding was determined by its inclusion in the assay at a range of concentrations between 0.03 and 100 μM for 10 minutes prior to and during the addition of (3H) serotonin/citalopram. Serotonin uptake via the transporter and citalopram binding were both inhibited by the coumarin ethers of formula I in a dose dependent manner. The calculated inhibition constants Ki, derived from the measured IC50 using the Cheng—Prusoff equation (Y. C. Cheng, W. H. Prusoff, Biochem. Pharmacol. 1973, 22, p. 3099-3108), for inhibition of serotonin uptake and citalopram binding by coumarin ethers of the formula I are shown in Table 1.
# [2] = target: T2, human serotonin re-uptake transporter (hSERT); assay: Labeled citalopram displacement from hSERT containing membranes (SPA); type: binding; details: hSERT containing membranes; Ki from IC50 by Cheng-Prusoff; 3.3 nM (3H) citalopram; read-out: Inhibition constant Ki for tritiated citalopram displacement
# Procedure: Membranes containing hSERT were prepared from the above cell line according to Galli et al, Journal of Experimental Biology 1995, 198, 2197-2212. 3 μg of membrane protein and 0.8 mg of wheat germ aglutinin coated SPA® (scintillation proximity assay) beads (Amersham Biosciences GE Healthcare, Slough, UK) per data point were mixed with radio-labeled (3H) citalopram (Amersham Biosciences GE Healthcare, Slough, UK) until a final concentration of 3.3 nM in 50 mM Tris-HCl, 300 mM NaCl (pH 7.4). After incubation for 18 hours at room temperature, the bound citalopram was quantified by liquid scintillation counting.
# as §1
smiles,measurement,setting,value
"C=C(C)[C@H]1COc2cc3oc(=O)ccc3cc2O1 (racemic) [Obliquin, obliquin]",MAO inhibition specificity MAO-B versus MAO-A,MAO-B; compared with MAO-A,higher specificity for MAO-B than for MAO-A
same,inhibition at 0.1 µM,"MAO-B; obliquin 1 x 10^−7 M, substrate benzylamine",8.3%
same,inhibition at 1 µM,"MAO-B; obliquin 10 x 10^−7 M, substrate benzylamine",33.3%
same,inhibition at 10 µM,"MAO-B; obliquin 100 x 10^−7 M, substrate benzylamine",76.9%
same,inhibition at 100 µM,"MAO-B; obliquin 1000 x 10^−7 M, substrate benzylamine",91.5%
same,Ki,[1],4.9 µM
same,Ki,[2],6.1 µM
